Measured values as given in PMC11834790, “Pyridine indole hybrids as novel potent CYP17A1 inhibitors” (Journal of Enzyme Inhibition and Medicinal Chemistry, 2025).
Several values for one entry are separate records, joined by “and”; a condition that tells them apart may be missing. Equal entries are not always repeated. Blank lines part the entries; values can stand above or below the compound they belong to.

Legend:
CYP17A1 [1] = biological target: T1, CYP17A1 (Homo sapiens, UniProt P05093); experiment: CYP17A1 activity calculated as ratios of steroid products to substrates (LC-MS); type: cell-based; conditions: normalised to DMSO-treated cells (100%), NCI-H295R
T1 construct: immortalised human adrenal cells expressing CYP17A1 and other steroidogenic enzymes; endogenous in cells; host or cells: NCI-H295R (human adrenal cells)
T1 sequence (P05093 1-508): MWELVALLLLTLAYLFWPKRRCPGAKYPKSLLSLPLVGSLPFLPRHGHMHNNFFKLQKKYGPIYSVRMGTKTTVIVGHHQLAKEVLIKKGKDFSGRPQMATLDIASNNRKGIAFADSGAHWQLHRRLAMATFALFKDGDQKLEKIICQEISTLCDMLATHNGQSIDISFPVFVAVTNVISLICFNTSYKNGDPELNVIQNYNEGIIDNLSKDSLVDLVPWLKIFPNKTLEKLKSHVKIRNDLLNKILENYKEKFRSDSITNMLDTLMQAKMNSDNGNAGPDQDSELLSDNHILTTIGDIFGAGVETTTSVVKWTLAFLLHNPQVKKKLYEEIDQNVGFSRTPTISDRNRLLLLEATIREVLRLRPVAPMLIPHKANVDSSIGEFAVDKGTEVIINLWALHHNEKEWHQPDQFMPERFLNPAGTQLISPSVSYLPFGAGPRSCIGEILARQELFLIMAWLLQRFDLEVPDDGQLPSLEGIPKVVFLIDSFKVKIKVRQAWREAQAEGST
Experimental: (§1) Steroid quantification was performed using Liquid Chromatography–Mass Spectrometry (LC-MS), following established protocols to study effect of compounds on adrenal steroidogenesis. Human adrenal NCI-H295R cells were seeded in 12-well plates at 500 000 cells per well and treated with fresh growth medium containing the test compounds for 4 h. Subsequently, 1 µM pregnenolone was added and incubated for an additional 4 h. Steroids were extracted from 500 µL aliquots of cell media, separated, and quantified according to the referenced methodology.
To provide deeper insights into CYP17A1 inhibition, the enzyme activity was calculated using ratios of steroid products to substrates, focusing on dual activities of CYP17A1 (Figure 4(B)).

[2] = tested on: adrenal steroidogenesis in NCI-H295R cells; experiment: Steroid profiling by LC-MS in NCI-H295R cells; type: cell-based, human; conditions: compounds at 10 µM; for Androsterone, Mean / Testosterone, Mean / Progesterone, Mean / Androstendione, Mean / 17a-Hydroxyprogesterone, Mean / DHEA, Mean / 11-Deoxycortisol, Mean / 11-Deoxycorticosterone, Mean / Pregnenolone, Mean: 1 µM pregnenolone; for Androsterone, Mean / Cortisone, Mean / DHEA-S, Mean / Dihydrotestosterone, Mean: DMSO 0; for Testosterone, Mean: DMSO 0.4785; for Progesterone, Mean: DMSO 4.814; for Androstendione, Mean: DMSO 7.577; for 17a-Hydroxyprogesterone, Mean: DMSO 9.967; for DHEA, Mean: DMSO 15.119; for 11-Deoxycortisol, Mean: DMSO 26.594; for 11-Deoxycorticosterone, Mean: DMSO 28.1555; for Pregnenolone, Mean: DMSO 2043.56; for Cortisone, Mean / DHEA-S, Mean / Dihydrotestosterone, Mean: not detected within the experimental timeframe
Experimental: as §1

CYP17A1 [3] = biological target: T1, CYP17A1; experiment: CYP17A1 17,20-lyase activity assay in NCI-H295R cells (tritiated water release); type: cell-based; conditions: dose-response, read-out: IC50, inhibition of 17,20-lyase activity
CYP17A1 [4] = biological target: T1, CYP17A1; experiment: as above; type: cell-based; conditions: 4 h, DMSO = 100, read-out: CYP17A1 Lyase activity, Mean (percentage of activity remaining relative to the control)
Experimental: (§2) Human adrenal NCI-H295R cells are an established model for assay of CYP17A1 activities. The NCI-H295R cells were seeded in 12-well plates at 500 000 cells per well and incubated overnight. On the following day, 10 µM of test compounds were added to the wells with fresh medium and incubated for 4 h. Abiraterone was used as a reference, and DMSO was included as a control. For assessing CYP17A1 hydroxylase activity, cells were treated with [^14C]-Progesterone at 10 000 cpm/1 µM per well. Trilostane was added prior to the test compounds and substrate to inhibit 3β-hydroxysteroid dehydrogenase activity so that a clean assay of only CYP17A1 activity could be performed[20]^,[27]^,[28]. Radiolabeled steroids were extracted from the media using a mixture of ethyl acetate and isooctane (1:1 v/v) and separated by Thin Layer Chromatography (TLC) on silica gel-coated aluminium plates (Supelco® Analytics, Sigma-Aldrich Chemie GmbH, Taufkirchen, Germany). TLC spots were visualised on a phosphor screen and detected by autoradiography using a Typhoon™ FLA-7000 PhosphorImager (GE Healthcare, Uppsala, Sweden). Radioactivity was quantified with ImageQuant™ TL analysis software (GE Healthcare Europe GmbH, Freiburg, Germany), and enzyme activity was expressed as the percentage of radioactivity incorporated into the product relative to the total radioactivity. For CYP17A1 lyase activity, cells were exposed to 50 000 cpm/1 µM [21-^3H]-17α-hydroxypregnenolone per well under similar conditions. The tritiated water release assay was used to measure the conversion of 17OH-Pregnenolone to DHEA. Steroids in the media were precipitated using a 5% activated charcoal/0.5% dextran solution. Enzyme activity was evaluated based on the water-soluble tritiated by-product formed in equimolar amounts with DHEA, with radioactivity in the aqueous phase quantified by liquid scintillation counting (MicroBeta2® Plate Counter, PerkinElmer Inc., Waltham, MA, USA). Percent inhibition was calculated relative to control samples.

CYP17A1 [5] = biological target: T1, CYP17A1; experiment: CYP17A1 17α-hydroxylase activity assay in NCI-H295R cells ([14C]-progesterone, TLC); type: cell-based; conditions: 4 h, DMSO = 100, read-out: CYP17A1 Hydroxylase activity, Mean (percentage of activity remaining relative to the control)
Experimental: as §2

DU-145 cells = experiment: Scratch (wound healing) assay; type: cell-based, human; conditions: DU-145, 10 µM; for Wound area, Mean (area remaining open): 24 h, DMSO 170.5; for Effect on cell migration (in words): after 24 h
Experimental: Human prostate cancer DU-145 cells show strong cell proliferation and therefore, are an established model for assay of antiproliferative effects of test compounds. DU-145 cells were plated in 24-well plates at 50 000 cells per well and grown until they reached 85% confluence. To inhibit cell proliferation, cells were treated with 5 µg/mL mitomycin for 2 h. A wound was created using a 10 µL pipette tip. The cells were then exposed to drugs at a concentration of 10 µM, while control wells received DMSO. Wound closure was observed and photographed using an optical microscope after 24 h. Images were analysed using ImageJ software (version 1.54j).

LNCaP cells = experiment: Alamar blue (resazurin) cell viability, LNCaP; type: cell-based, human; conditions: 10 µM; for Effect on LNCaP cell viability (in words): 48 h
Experimental: (§3) LNCaP and RWPE-1 cells were plated in 96-well plates at 10 000 cells per well and incubated overnight at 37 °C with 5% CO2. VCaP cells were plated at 12 000 cells per well under the same conditions. After 24 h, the medium was replaced with fresh medium containing the compounds or abiraterone at a final concentration of 10 µM. Cells were incubated for an additional 24 and 48 h. Cell viability was measured using the Alamar Blue assay. Post-incubation, 0.05 mg/mL Alamar Blue solution in phosphate-buffered saline (PBS) was added to each well. The plates were incubated in the dark at 37 °C for 4 h, and fluorescence was measured at an excitation wavelength of 550 nm and an emission wavelength of 590 nm. Cell viability was calculated relative to control sample treated with DMSO. All experiments were conducted in triplicate.

VCaP cells = experiment: Alamar blue (resazurin) cell viability, VCaP; type: cell-based, human; conditions: Homo sapiens, VCaP, 24 h
Experimental: as §3

- remaining activity at 10 µM (CYP17A1 [4]): 57.4%
- remaining activity at 10 µM (CYP17A1 [5]): 53%
SMILES: N#Cc1c(-c2ccccc2)cc(-c2ccncc2)c(C#N)c1N [Compound 6, 3-Amino-5-(pyridin-4-yl)-[1,1′-biphenyl]-2,4-dicarbonitrile]
- Cytotoxic effect on LNCaP cells (in words) (LNCaP cells; 24 and 48 h): marked reduction in viability
- viability at 10 µM (VCaP cells): < 50%

- remaining activity at 10 µM (CYP17A1 [4]): 113%
- remaining activity at 10 µM (CYP17A1 [5]): 96%
SMILES: N#Cc1c(-c2cccnc2)cc(-c2cccnc2)c(C#N)c1N [Compound 7, 2-Amino-4,6-di(pyridin-3-yl)isophthalonitrile]

- remaining activity at 10 µM (CYP17A1 [4]): 84.8%
- remaining activity at 10 µM (CYP17A1 [5]): 103%
SMILES: N#Cc1c(-c2ccncc2)cc(-c2ccncc2)c(C#N)c1N [Compound 8, 2-Amino-4,6-di(pyridin-4-yl)isophthalonitrile]

- remaining activity at 10 µM (CYP17A1 [4]): 66.8%
- remaining activity at 10 µM (CYP17A1 [5]): 63%
SMILES: N#Cc1c(-c2ccncc2)cc(-c2cccnc2)c(C#N)c1N [Compound 9, 2-Amino-4-(pyridin-3-yl)-6-(pyridin-4-yl)isophthalonitrile]

- remaining activity at 10 µM (CYP17A1 [4]): 58.2%
- remaining activity at 10 µM (CYP17A1 [5]): 32%
SMILES: CCCn1nnc2cc(-c3cc(-c4ccncc4)c(C#N)c(N)c3C#N)ccc21 [Compound 10, 2-Amino-4–(1-propyl-1H-benzo[d][1,2,3]triazol-5-yl)-6-(pyridin-4-yl)isophthalonitrile]

Continued, compound first:

SMILES: CCCn1nnc2cc(-c3cc(-c4ccncc4)c(C#N)c(N)n3)ccc21 [Compound 1, 2-Amino-6–(1-propyl-1H-benzo[d][1,2,3]triazol-5-yl)-[4,4′-bipyridine]-3-carbonitrile]
- 17α-Hydroxylase activity (ratios of steroid products to substrates) (CYP17A1 [1]): 1.8%
- Combined 17α-hydroxylase and 17,20-lyase activity (ratios of steroid products to substrates) (CYP17A1 [1]): 6.6%
- Androsterone, Mean [2]: 0 nmol/L
- Testosterone, Mean [2]: 0.4455 nmol/L
- Progesterone, Mean [2]: 27.8235 nmol/L
- Androstendione, Mean [2]: 1.564 nmol/L
- 17a-Hydroxyprogesterone, Mean [2]: 0.977 nmol/L
- DHEA, Mean [2]: 1.1015 nmol/L
- 11-Deoxycortisol, Mean [2]: 5.22 nmol/L
- 11-Deoxycorticosterone, Mean [2]: 41.58 nmol/L and 41.577 nmol/L
- Pregnenolone, Mean [2]: 2228.179 nmol/L
- Cortisone, Mean [2]: 0 nmol/L
- DHEA-S, Mean [2]: 0 nmol/L
- Dihydrotestosterone, Mean [2]: 0 nmol/L
- IC50 (CYP17A1 [3]): 10 nM
- remaining activity at 10 µM (CYP17A1 [4]): 46.3%
- remaining activity at 10 µM (CYP17A1 [5]): 45%
- Wound area, Mean (area remaining open) (DU-145 cells): 731.5 Pixels^2
- Effect on cell migration (in words) (DU-145 cells): less pronounced effect comparable to that exerted by abiraterone

SMILES: N#Cc1c(-c2ccccc2)cc(-c2ccccc2)nc1N [Compound 2, 2-Amino-4,6-diphenylnicotinonitrile]
- remaining activity at 10 µM (CYP17A1 [4]): 93.7%
- remaining activity at 10 µM (CYP17A1 [5]): 67%

SMILES: N#Cc1c(-c2ccccc2)cc(-c2cccnc2)nc1N [Compound 3, 6-Amino-4-phenyl-[2,3′-bipyridine]-5-carbonitrile]
- remaining activity at 10 µM (CYP17A1 [4]): 94.7%
- remaining activity at 10 µM (CYP17A1 [5]): 84%

SMILES: N#Cc1c(-c2cccnc2)cc(-c2ccccc2)nc1N [Compound 4, 2′-Amino-6′-phenyl-[3,4′-bipyridine]-3′-carbonitrile]
- remaining activity at 10 µM (CYP17A1 [4]): 68.5%
- remaining activity at 10 µM (CYP17A1 [5]): 71%

SMILES: c1cncc(-c2ccc(-c3ccc4[nH]ccc4c3)cc2)c1 [Compound 13, 5-(4-(Pyridin-3-yl)phenyl)-1H-indole]
- remaining activity at 10 µM (CYP17A1 [4]): 93.5%
- remaining activity at 10 µM (CYP17A1 [5]): 76%

SMILES: c1cc(-c2ccncc2)cc(-c2ccc3[nH]ccc3c2)c1 [Compound 14, 5-(3-(Pyridin-4-yl)phenyl)-1H-indole]
- 17α-Hydroxylase activity (ratios of steroid products to substrates) (CYP17A1 [1]): 1.5%
- Androsterone, Mean [2]: 0.61 nmol/L
- Testosterone, Mean [2]: 0.4105 nmol/L
- Progesterone, Mean [2]: 51.7765 nmol/L
- Androstendione, Mean [2]: 1.359 nmol/L
- 17a-Hydroxyprogesterone, Mean [2]: 1.6245 nmol/L
- DHEA, Mean [2]: 0.6075 nmol/L
- 11-Deoxycortisol, Mean [2]: 3.75 nmol/L and 3.7485 nmol/L
- 11-Deoxycorticosterone, Mean [2]: 3.518 nmol/L
- Pregnenolone, Mean [2]: 2377.463 nmol/L
- Cortisone, Mean [2]: 0 nmol/L
- DHEA-S, Mean [2]: 0 nmol/L
- Dihydrotestosterone, Mean [2]: 0 nmol/L
- IC50 (CYP17A1 [3]): 26 nM
- remaining activity at 10 µM (CYP17A1 [4]): 23.9%
- Effect on LNCaP cell viability (in words) (LNCaP cells): strong effect
- remaining activity at 10 µM (CYP17A1 [5]): 35%
- Wound area, Mean (area remaining open) (DU-145 cells): 7074 Pixels^2
- Effect on cell migration (in words) (DU-145 cells): significant inhibition of cell migration

SMILES: c1cc(-c2ccc(-c3ccc4[nH]ccc4c3)cc2)ccn1 [Compound 15, 5-(4-(Pyridin-4-yl)phenyl)-1H-indole]
- remaining activity at 10 µM (CYP17A1 [4]): 57.3%
- Effect on LNCaP cell viability (in words) (LNCaP cells): strong effect
- remaining activity at 10 µM (CYP17A1 [5]): 87%
